Results: the supplement of paper PMC13380429

Assays:
Conditions in all cases: 72 h
Caco-2 [1] = assay: relative viability EC50 (midpoint between 100% and the lowest measured viability); higher = less toxic
HepG2 [2] = assay: as above
Vero E6 [3] = assay: as above
U2OS [4] = assay: as above
Calu-3 [5] = assay: as above
Caco-2 [6] = assay: drug sensitivity score (DSS) for viability; higher = more toxic; extreme values may be limits of the assay
HepG2 [7] = assay: as above
Vero E6 [8] = assay: as above
U2OS [9] = assay: as above
Calu-3 [10] = assay: as above
Caco-2 [11] = assay: cell viability relative to DMSO; higher = less toxic
HepG2 [12] = assay: as above
Vero E6 [13] = assay: as above
U2OS [14] = assay: as above
Calu-3 [15] = assay: as above

Compound	relative viability EC50 (Caco-2 [1]) [µM]	relative viability EC50 (HepG2 [2]) [µM]	relative viability EC50 (Vero E6 [3]) [µM]	relative viability EC50 (U2OS [4]) [µM]	relative viability EC50 (Calu-3 [5]) [µM]	drug sensitivity score (Caco-2 [6])	drug sensitivity score (HepG2 [7])	drug sensitivity score (Vero E6 [8])	drug sensitivity score (U2OS [9])	drug sensitivity score (Calu-3 [10])	cell viability (Caco-2 [11]; 1 nM) [%]	cell viability (Caco-2 [11]; 10 nM) [%]	cell viability (Caco-2 [11]; 100 nM) [%]	cell viability (Caco-2 [11]; 1000 nM) [%]	cell viability (Caco-2 [11]; 10000 nM) [%]	cell viability (HepG2 [12]; 1 nM) [%]	cell viability (HepG2 [12]; 10 nM) [%]	cell viability (HepG2 [12]; 100 nM) [%]	cell viability (HepG2 [12]; 1000 nM) [%]	cell viability (HepG2 [12]; 10000 nM) [%]	cell viability (Vero E6 [13]; 1 nM) [%]	cell viability (Vero E6 [13]; 10 nM) [%]	cell viability (Vero E6 [13]; 100 nM) [%]	cell viability (Vero E6 [13]; 1000 nM) [%]	cell viability (Vero E6 [13]; 10000 nM) [%]	cell viability (U2OS [14]; 1 nM) [%]	cell viability (U2OS [14]; 10 nM) [%]	cell viability (U2OS [14]; 100 nM) [%]	cell viability (U2OS [14]; 1000 nM) [%]	cell viability (U2OS [14]; 10000 nM) [%]	cell viability (Calu-3 [15]; 1 nM) [%]	cell viability (Calu-3 [15]; 10 nM) [%]	cell viability (Calu-3 [15]; 100 nM) [%]	cell viability (Calu-3 [15]; 1000 nM) [%]	cell viability (Calu-3 [15]; 10000 nM) [%]
Cc1occc(=O)c1[O-].Cc1occc(=O)c1[O-].[O]=[V+2] [bis(maltolato)oxovanadium(IV)]	> 10	> 10	> 10	> 10	> 10	0	0	0	0	0.3	101	96	95.4	95.4	90.4	110	104	100	108	93	94	98.2	92.7	105	103	98.4	91.3	102	94.5	88.5	100	103	98	92.4	86.3
S=C=Nc1ccc(N=C=S)cc1 [bitoscanate]	> 10	> 10	> 10	> 10	> 10	0	0	0	0	0	91.8	96.6	101	106	103	97.9	82.6	103	91	105	90.7	93.6	93.5	92.2	104	94.2	101	96.3	100	105	104	103	94.6	95.3	102
CC(C)(C)[C@]1(O)CCN2C[C@H]3c4ccccc4CCc4cccc(c43)[C@@H]2C1 [butaclamol]	> 10	> 10	> 10	> 10	> 10	0	0	0	0	0	101	94.3	93.9	99.6	94.5	108	100	96.3	90	95.5	98.4	103	104	98	102	95.5	101	92	101	90.2	90	99.7	97.2	112	94.9
CN1CC(O)C2=C/C(=N/NC(N)=O)C(=O)C=C21 (stereo not given) [carbazochrome]	> 10	> 10	> 10	> 10	> 10	0	0	0	0	0	93.3	88.5	91.5	102	109	98.8	97	92.2	97.1	93.1	101	97	93.9	96.8	103	101	97.6	98.2	92.7	101	105	95.3	103	93.9	93.4
CC(=O)OCC1=C(C(=O)O)N2C(=O)[C@@H](NC(=O)CCCC(N)C(=O)O)C2SC1 (stereo not given in full) [cephalosporin-c-zn]	> 10	> 10	> 10	> 10	> 10	0	0	0	0	0	88.7	78	94.1	89.6	99.2	103	88.2	81.8	112	102	93.6	87.4	90.9	100	104	97.1	98.1	94.9	92.7	104	93.2	104	91.5	97.7	99.5
C=CC1=C(C)C2=CC3=NC(=C(CC(=O)O)C4=NC(=C(C)C4=C(O)O)C=c4[nH]c(c(C)c4CC)=CC1=N2)C(CCC(=O)O)C3C (stereo not given) [chlorophyllin]	> 10	> 10	> 10	> 10	> 10	0	0	0	0	0	102	104	96.6	91	91.4	97.3	106	115	112	106	100	99.9	95.7	96.9	92.6	97.7	96.1	100	96	103	111	89.7	93.2	101	116
C[C@H](CCC(=O)O)[C@H]1CC[C@H]2[C@@H]3[C@H](O)C[C@@H]4C[C@H](O)CC[C@]4(C)[C@H]3C[C@H](O)[C@]12C [cholic-acid]	> 10	> 10	> 10	> 10	> 10	0	0	0	0	0	93.3	92.3	95.3	100	93	112	97.5	96.3	94.2	102	102	102	100	100	99.4	97.3	100	93.5	102	96.5	87	91.1	88	99	96.9
O=c1cc(-c2ccccc2)oc2cc(O)cc(O)c12 [chrysin]	> 10	> 10	> 10	> 10	> 10	0	0	0	0	0	99.4	86.9	102	91.9	94.4	88.5	102	93.5	100	104	92.5	102	87.9	94.8	111	98.4	97	101	97.4	99.2	94.5	92.9	106	91.7	102
NC(=O)C1=CN([C@@H]2O[C@H](COP(=O)(O)OP(=O)(O)OC[C@H]3O[C@@H](n4cnc5c(N)ncnc54)[C@H](O)[C@@H]3O)[C@@H](O)[C@H]2O)C=CC1 [coenzyme-I]	> 10	> 10	> 10	> 10	> 10	0	0	0	0	0	103	94.2	88.7	98.7	108	93.3	103	89.4	111	90.2	93	96.4	89.3	97.2	105	103	97.5	101	95.9	113	91.4	92.2	100	93.2	97.3
N[C@@H]1CONC1=O [cycloserine-(D)]	> 10	> 10	> 10	> 10	> 10	0	0	0	0	0	89.5	96.2	100	98.7	105	106	101	104	89.7	108	99.6	104	98.2	99.8	103	96.7	96.3	96.4	96.7	97	99.6	102	97.2	105	96.7
O=C1c2cccc(O)c2C(=O)c2c(O)cccc21 [dantron]	> 10	> 10	> 10	> 10	> 10	0	0	0.2	0	0.1	107	92.6	88.7	91.2	101	102	105	105	97.9	93.8	98.5	89.2	100	93.2	83.5	94.3	98.4	97.7	103	99.8	103	97.5	96.1	98.6	88.4
CC1(C)OC(=O)NC1=O [dimethadione]	> 10	> 10	> 10	> 10	> 10	0	0	0	0	0	99.9	98.9	105	97.7	98.3	106	102	96.9	95.9	95.1	112	108	108	97.7	102	101	103	95	98.6	96.2	92.4	107	100	105	109
CN1CCC(OC(c2ccccc2)c2ccccc2)CC1 [diphenylpyraline]	> 10	> 10	> 10	> 10	> 10	0	0	0	0	0	96.1	96.3	97.6	102	94.6	89.7	98.2	90.6	103	111	94.6	106	97.1	104	109	103	95.7	102	95.1	98.6	97.3	90	98.7	94.9	95.1
